The target of this experiment is T1, Vibrio fischeri luciferase (VfLuc) (Aliivibrio fischeri, UniProt P19907).
T1 construct: gene luxA; commercial Vibrio fischeri luciferase (Sigma-Aldrich L8507), with FMN reductases; with luciferase beta subunit (LuxB)
T1 sequence (P19907 1-354): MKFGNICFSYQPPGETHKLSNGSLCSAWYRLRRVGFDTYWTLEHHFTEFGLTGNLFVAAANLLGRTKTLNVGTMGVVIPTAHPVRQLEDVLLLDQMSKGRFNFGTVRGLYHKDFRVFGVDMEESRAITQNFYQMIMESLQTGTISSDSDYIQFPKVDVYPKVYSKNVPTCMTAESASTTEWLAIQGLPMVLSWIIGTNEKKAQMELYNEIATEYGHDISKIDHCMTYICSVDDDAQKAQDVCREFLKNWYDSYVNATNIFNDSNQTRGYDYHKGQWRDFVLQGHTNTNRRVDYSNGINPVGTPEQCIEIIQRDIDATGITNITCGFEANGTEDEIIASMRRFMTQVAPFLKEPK
T1 sequence (P19908 1-326 partner): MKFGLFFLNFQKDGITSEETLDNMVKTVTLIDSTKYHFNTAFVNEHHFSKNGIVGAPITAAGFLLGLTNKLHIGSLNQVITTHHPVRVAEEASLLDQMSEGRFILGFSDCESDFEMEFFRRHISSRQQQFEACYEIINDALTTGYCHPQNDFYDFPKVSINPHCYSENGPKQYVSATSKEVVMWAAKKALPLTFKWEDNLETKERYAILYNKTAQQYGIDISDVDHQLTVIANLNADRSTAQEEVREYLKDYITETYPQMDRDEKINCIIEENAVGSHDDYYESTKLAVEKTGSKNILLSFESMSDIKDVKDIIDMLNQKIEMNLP
Put plainly: luminescence enzyme assay, coupled with FMN reductase, 12-point titration. The class given is biochemical.

The record followed here is PMC6236115, “The 9H-Fluoren Vinyl Ether Derivative SAM461 Inhibits Bacterial Luciferase Activity and Protects Artemia franciscana From Luminescent Vibriosis” (Frontiers in Cellular and Infection Microbiology, 2018).

Each structure is given as a SMILES string.

Compound `COC(=O)/C=C/OC1c2ccccc2-c2ccccc21` [SAM461, (E)-Methyl 3-((9H-fluoren-9-yl)oxy)acrylate] yielded an IC50 of 191 µM.
